Assay results reported in patent publication US20050120397A1, “Compounds and methods for regulation of spermatid differentiation” (priority 2003, published 2005).
“Also recorded” adds a separate entry of the source. Residues, ends and D or L forms follow the SMILES beside them. *: point of attachment. Cbz = O=C(OCc1ccccc1)*; CH2F = FC*

Legend:
[1] = system: spermatid individualization in cultured testes; assay: Testes cultures with caspase inhibitor (spermatid individualization); assay type: cell-based, Drosophila; conditions: isolated testes cultured 24-26 hours at 25° C. with 30 mm Z-VAD(OMe)-FMK
Procedure: At least 20 testes were examined for each experiment described. Testes of young adults were dissected in testis buffer (TB) which consisted of: 10 mM Tris-HCl, pH 6.8, 183 mM KCl, 47 mM NaCl, 1 mM EDTA, and 1 mM PMSF. Dissected testes were transferred to a […] droplet of TB placed on a siliconized coverslip (GOLD SEAL), opened using thin forceps, and sandwiched with a poly-L-lysine-coated slide. The sandwich was frozen in liquid nitrogen, the coverslip was removed with a razor blade, and the slide was placed in ice-cold absolute ethanol. The slides were drained and a hydrophobic ring surrounding the opaque tissue was drawn using a PAP PEN (Zymed Laboratories Inc.). The tissue was fixed in 4% formaldehyde in PBS for 20 minutes, rinsed twice with PBS for 5 minutes, incubated in PBT (PBS+0.1% Triton X-100) for 30 minutes, and rinsed twice again. The fixed testes were then blocked with PBS/BSA (1% BSA in PBS) for 45 minutes, incubated with primary antibody (diluted in PBS/BSA) within the hydrophobic ring overnight at […] inside a humid chamber, and rinsed twice for 5 minutes in PBS. […] Caspase inhibition of IC caudal movement was determined in vitro, using isolated pairs of testes from young adult flies (n=10). […]

[2] = system: Drosophila S2 cells; conditions: cited from earlier work
[3] = biological target: T1, drICE (Drosophila melanogaster, UniProt O01382); conditions: cited from earlier work
T1 sequence (O01382 29-217 limits assumed): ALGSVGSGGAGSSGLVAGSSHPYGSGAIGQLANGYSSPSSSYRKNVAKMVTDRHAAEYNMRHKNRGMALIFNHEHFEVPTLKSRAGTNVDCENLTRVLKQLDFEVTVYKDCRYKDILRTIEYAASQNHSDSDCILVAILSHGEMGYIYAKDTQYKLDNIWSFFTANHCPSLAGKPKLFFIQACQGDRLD
T1 sequence (O01382 231-339 limits assumed): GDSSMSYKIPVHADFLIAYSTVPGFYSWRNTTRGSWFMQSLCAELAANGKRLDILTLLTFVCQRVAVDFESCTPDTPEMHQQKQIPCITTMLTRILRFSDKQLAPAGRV

[4] = system: spermatid individualization and male fertility; assay: Expression of p35 in male gonads (Hsp83-gal4 x UAS-p35): fertility test and cytological analysis; assay type: in vivo, Drosophila
[5] = ectopic expression of p35 in male germ cells

For `COC(=O)C[C@H](NC(=O)[C@H](C)NC(=O)[C@@H](NC(=O)OCc1ccccc1)C(C)C)C(=O)CF` [Z-VAD, Z-VAD(OMe)-FMK] (Cbz-Val-Ala-Asp(OMe)-CH2F), the “IC (individualization complex) translocation” value ([1]; versus DMSO control) is listed as “no evidence of IC translocation”, the “cystic bulge (CB) morphology / collection of cytoplasm into CBs” value ([1]; versus DMSO control testis of same individual) is listed as “advanced CBs that appeared flat; also recorded: flat, irregular CBs” and the drICE-induced cell death [2] is listed as “blocks”. For the same molecule, the “activity of drICE in vitro” value [3] was “blocks the activity of drICE in vitro”.

B1: p35: baculoviral broad-spectrum caspase inhibitor p35, expressed in male gonads via the GAL4/UAS system (protein, UniProt P08160 1-299, looked up)
Early 35 kDa protein: MCVIFPVEIDVSQTIIRDCQVDKQTRELVYINKIMNTQLTKPVLMMFNISGPIRSVTRKNNNLRDRIKSKVDEQFDQLERDYSDQMDGFHDSIKYFKDEHYSVSCQNGSVLKSKFAKILKSHDYTDKKSIEAYEKYCLPKLVDERNDYYVAVCVLKPGFENGSNQVLSFEYNPIGNKVIVPFAHEINDTGLYEYDVVAYVDSVQFDGEQFEEFVQSLILPSSFKNSEKVLYYNEASKNKSMIYKALEFTTESSWGKSEKYNWKIFCNGFIYDKKSKVLYVKLHNVTSALNKNVILNTIK
For B1, the “CM1-staining (active drICE)” value [4, 5] was “failing to block CM1-staining”, the “spermatid individualization / CB and WB morphology in vivo” value [4, 5] was “the cytoplasm failed to collect to form a normal CB; also recorded: blocked individualization; also recorded: scattered IC cones and flat CBs and WBs” and the “IC translocation in vivo” value ([4]; male progeny with Hsp83-gal4 driver and UAS-p35 construct) was “IC translocation was severely impaired”. The male fertility ([4]; male progeny with Hsp83-gal4 driver and UAS-p35 construct, parental lines fertile) was “sterile”.
